For 6 compounds, IC50 and CC50 results are on record in patent publication US20260250325A1, “Antiviral Polypeptide Membrane Fusion Inhibitor, and Preparation Method and Application Thereof” (priority 2025, published 2026).

In series [1] the test system is RSV A long virus strain. The series is classed as cell-based. The method, then:
In this embodiment, an RSV-A long virus strain was used as an infection virus in the present disclosure. The anti-RSV activity of the synthesized polypeptide was determined through CPE detection.
The inhibitory activity of the compounds of Table 1-1-Table 1-5, positive polypeptide in Table 1-11, and positive control T-118 against the RSV-A long virus strain was detected.
(§1) Human Epithelial Pharyngeal Carcinoma Cells (HEp-2) were from the American Type Culture Collection (ATCC), with a catalog number CCL-23. The cells were cultured in a DMEM culture solution in which 10% fetal bovine serum, 1% sodium pyruvate, 1% nonessential amino acids, 2 mM glutamine, 100 U/mL penicillin, and 100 μg/mL streptomycin were added. The RSV A long virus strain was from the ATCC, with a catalog number VR-26.
This study used a plaque reduction experiment to detect the in-vitro activity of a test sample against the RSV A long virus strain. The test sample and a control compound were tested at 8 concentrations in duplicated wells. The HEp-2 cells were digested with trypsin and then diluted to a concentration of 300,000 cells per milliliter by using an experimental culture solution. The diluted cells were added to a 96-well cell test board, with 100 μL per well, corresponding to 30000 cells per well. The cells were cultured overnight in a 37° C. incubator with 5% CO2. On the second day, the test sample was diluted in an experimental culture medium at a fold ratio. The sample diluted at a fold ratio and an equal volume of virus (100 PFU per well) were well mixed and incubated at 37° C. in 5% CO2 for 1 h. Then, the culture solution in the 96-well cell test board was discarded, the sample virus mixed solution (200 μL) was added to the 96-well cell culture plate, and incubated at 37° C. in 5% CO2 for 2 hours. After 2 h, the sample virus mixed solution was discarded, and 200 μL of maintenance culture medium containing 0.8% CMC and the corresponding concentration of the test sample was added. A cell control (cells, without compound treatment or viral infection) and a viral control (cell infection virus, without compound treatment) were set. The cells were cultured for 1 day in the 37° C. incubator with 5% CO2. One day after viral infection, the culture medium was discarded, the cells were fixed with 4% paraformaldehyde, and then permeabilization was performed with 0.5% Triton X-100. After the plate was washed with DPBS, an RSV-specific antibody (RSV antibody, diluted 1:3000) was added and incubated at 37° C. for 1 h. Then, a secondary antibody (donkey anti-goat IgG, diluted 1:500) and incubated at 37° C. for 1 h. The secondary antibody was discarded, a TrueBlue solution was added, dyeing was performed for 10 min; and the plate was washed with running water and then air-dried, and the number of spots in each well was counted by using a microplate imaging counter. Raw data was used for calculating the antiviral activity of the samples.
(§2) The raw data for plaque counts and cell viability tests were used for analyzing the antiviral activity and cytotoxicity of the test samples, respectively. A calculation formula was shown as follows.
% inhibition rate=100−(sample value-cell control average value)/(virus control average value-cell control average value)×100%
(§3) Non-linear fitting analysis was performed on the inhibition rate of the sample by using GraphPad Prism (version 10), so as to calculate the IC50 and CC50 values for the sample.
IC50: in an in-vitro antiviral activity experiment, IC50 represented an inhibition ability indicator of a compound to be tested against the Hep-2 cells infected by the RSV A long virus strain.

Series [2] is described as follows: Cytotoxicity test in HEp-2 cells (CCK8 cell viability). The series is classed as cell-based. As to conditions: human. The protocol:
as §1
A cytotoxicity test and an antiviral test were performed in parallel. The HEp-2 cells were inoculated in the microplate at a density of 30,000 cells per well, and cultured overnight in the 37° C. incubator with 5% CO2. On the next day, the diluted test sample was added. The cell control (cells, without compound treatment) and a culture solution control (culture solution only, without cell or compound treatment) were set. A final concentration of DMSO in the culture solution was 0.5%. The cells were cultured for 1 day in the 37° C. incubator with 5% CO2. Cell viability was detected by using a cell viability detection kit CCK8.
as §2
cell survival rate=(sample value-culture medium control average value)/(cell control average value-culture medium control average value)×100
as §3
CC50: in the in-vitro antiviral activity experiment, CC50 was used to measure the toxicity of the compound to be tested to the Hep-2 cells. To be precise, when the compound to be tested was at a specific concentration, 50% of the Hep-2 cells was caused to die, and this concentration was defined as the CC50. A fitting formula was log (inhibitor) vs. response-Variable slope (four parameters).

[3] abbreviates: RSV A long virus strain, HEp-2 cells, plaque reduction, 1 day, read-out: IC50.
[4] abbreviates: HEp-2 cells, CCK8, 1 day, read-out: CC50.

Where two headings read alike, the source gives them in different places. Where a SMILES comes first, the peptide text is derived from it. [ ]: non-standard residue; d: D form. The star is where a group is joined. ξ: configuration not given here. Succinyl(4-O-cholesteryl) = CC(C)CCC[C@@H](C)[C@H]1CC[C@H]2[C@@H]3CC=C4C[C@@H](OC(=O)CCC(=O)*)CC[C@]4(C)[C@H]3CC[C@]12C; X1 = CC(C)CCCC(C)C1CCC2C3CC=C4CC(OC(=O)CCC(=O)*)CCC4(C)C3CCC12C; ξD = NC(CC(=O)O)C(=O)O Some results are limits rather than exact numbers.

For the compound “Ac-FDASISQVNEKINQSLAFIRKSDELLHNVNAGKSTTEAAAKK(X1)-NH2 [Positive polypeptide 7, reference compound]”, in series [1] (setting [3]), the IC50 is greater than 0.3 µM. Further, the CC50 at 1 day in series [2] (setting [4]) is greater than 10 µM.
The matching figures for `CC[C@H](C)[C@H](NC(C)=O)C(=O)N[C@@H](CCC(=O)O)C(=O)N[C@@H](CCC(N)=O)C(=O)N[C@H](C(=O)N[C@@H](CC(N)=O)C(=O)N[C@@H](CCCCN)C(=O)N[C@@H](CCCCN)C(=O)N[C@H](C(=O)N[C@@H](CCC(=O)O)C(=O)N[C@@H](CCC(N)=O)C(=O)N[C@@H](CO)C(=O)N[C@@H](CC(C)C)C(=O)N[C@@H](CCCCN)C(=O)N[C@@H](Cc1ccccc1)C(=O)N[C@H](C(=O)N[C@@H](CCC(=O)O)C(=O)N[C@@H](CCCCN)C(=O)N[C@@H](CO)C(=O)N[C@@H](CC(=O)O)C(=O)N[C@@H](CCCCN)C(=O)N[C@@H](CC(C)C)C(=O)N[C@@H](CC(C)C)C(=O)N[C@@H](CCC(=O)O)C(=O)N[C@@H](CC(N)=O)C(=O)N[C@H](C(=O)N[C@@H](CC(N)=O)C(=O)N[C@@H](CCCCN)C(=O)NCC(=O)N[C@@H](CCCCN)C(N)=O)C(C)C)[C@@H](C)CC)[C@@H](C)CC)C(C)C` [Positive polypeptide 2, reference compound] (Ac-IEQVNKKIEQSLKFIEKSDKLLENVNKGK-NH2): greater than 0.3 µM and greater than 10 µM.
On to `CC[C@H](C)[C@H](NC(=O)[C@H](Cc1ccccc1)NC(=O)[C@H](C)NC(=O)[C@H](CC(=O)O)NC(=O)[C@H](Cc1ccccc1)NC(C)=O)C(=O)N[C@@H](CCC(N)=O)C(=O)N[C@@H](CCC(=O)O)C(=O)N[C@H](C(=O)N[C@@H](CC(N)=O)C(=O)N[C@H](C(=O)N[C@@H](CC(N)=O)C(=O)N[C@@H](CCC(=O)O)C(=O)N[C@@H](CC(=O)O)C(=O)N[C@@H](CCC(N)=O)C(=O)N[C@@H](CO)C(=O)N[C@@H](CC(C)C)C(=O)N[C@@H](CCC(=O)O)C(=O)N[C@@H](CCC(N)=O)C(=O)N[C@@H](CO)C(=O)N[C@@H](CC(=O)O)C(=O)N[C@@H](CCC(=O)O)C(=O)N[C@@H](CC(C)C)C(=O)N[C@@H](CC(C)C)C(=O)N[C@@H](CC(C)C)C(=O)N[C@@H](CCC(=O)O)C(=O)N[C@@H](CC(C)C)C(=O)N[C@@H](Cc1c[nH]cn1)C(=O)N[C@@H](CC(C)C)C(=O)N[C@@H](CC(C)C)C(=O)N[C@@H](Cc1c[nH]cn1)C(=O)N[C@@H](CO)C(=O)N[C@@H](CC(C)C)C(=O)N[C@@H](CC(C)C)C(=O)N[C@@H](Cc1c[nH]cn1)C(N)=O)C(C)C)[C@@H](C)CC` [Compound 7] (Ac-FDAFIQEINVNEDQSLEQSDELLLELHLLHSLLH-NH2), for which the IC50 in series [1] is greater than 8 µM. In series [2], this compound yielded a CC50 at 1 day greater than 8 µM.
As to `CC[C@H](C)[C@H](NC(=O)[C@H](CCCCN)NC(=O)[C@H](CC(=O)O)NC(=O)[C@H](CO)NC(=O)[C@H](CCC(N)=O)NC(=O)[C@H](CCCCN)NC(=O)[C@H](CCCCN)NC(=O)[C@H](CC(C)C)NC(=O)[C@H](CO)NC(=O)[C@H](CCC(N)=O)NC(=O)[C@H](CCCCN)NC(=O)[C@H](CCC(=O)O)NC(=O)[C@H](CCC(=O)O)NC(=O)[C@H](CCC(=O)O)NC(=O)[C@@H](NC(=O)[C@H](CCCCN)NC(=O)[C@H](CCCCN)NC(=O)[C@H](CC(N)=O)NC(=O)[C@@H](NC(C)=O)C(C)C)[C@@H](C)CC)C(=O)N[C@@H](CCC(=O)O)C(=O)N[C@@H](CCC(=O)O)C(=O)N[C@@H](CO)C(=O)N[C@@H](CC(=O)O)C(=O)N[C@@H](CCC(=O)O)C(=O)N[C@@H](CC(N)=O)C(=O)N[C@@H](CCC(=O)O)C(=O)N[C@@H](C)C(=O)N[C@@H](C)C(=O)N[C@@H](C)C(=O)N[C@@H](CCCCN)C(=O)N[C@@H](CCCCNC(=O)CCC(=O)OC1CCC2(C)C(=CCC3C2CCC2(C)C(C(C)CCCC(C)C)CCC32)C1)C(N)=O` (stereo partly shown) [Compound 36] (Ac-VNKKIEEEKQSLKKQSDKIEESDENEAAAKK(X1)-NH2), in series [1] (setting [3]), the IC50 was 6.82 µM. In addition, in series [2] (setting [4]), the 50% cytotoxic concentration (CC50) at 1 day is greater than 8 µM.
As to `CC[C@H](C)[C@H](NC(=O)[C@H](CCCCN)NC(=O)[C@H](CCCCN)NC(=O)[C@H](CC(C)C)NC(=O)[C@H](CO)NC(=O)[C@H](CCC(=O)O)NC(=O)[C@H](CCC(=O)O)NC(=O)[C@@H](NC(=O)[C@H](CCCCN)NC(=O)[C@H](CCCCN)NC(=O)[C@H](CC(N)=O)NC(=O)[C@@H](NC(=O)[C@H](CCC(=O)O)NC(=O)[C@H](CCC(=O)O)NC(=O)[C@@H](NC(=O)[C@H](CCCCN)NC(=O)[C@H](CCCCN)NC(=O)[C@H](CCCCN)NC(=O)[C@H](CC(=O)O)NC(=O)[C@H](Cc1ccccc1)NC(=O)[C@H](CCC(=O)O)NC(=O)[C@H](CC(=O)O)NC(C)=O)[C@@H](C)CC)C(C)C)[C@@H](C)CC)C(=O)N[C@@H](CCC(=O)O)C(=O)N[C@@H](CCC(=O)O)C(=O)N[C@@H](CO)C(=O)N[C@@H](CC(=O)O)C(=O)N[C@@H](CCCCN)C(=O)N[C@@H](CCCCN)C(=O)N[C@@H](CC(C)C)C(=O)N[C@@H](CCC(=O)O)C(=O)N[C@@H](CCC(=O)O)C(=O)N[C@H](C(=O)N[C@@H](CCC(=O)O)C(=O)N[C@@H](C)C(=O)N[C@@H](C)C(=O)N[C@@H](C)C(=O)N[C@@H](CCCCN)C(=O)N[C@@H](CCCCNC(=O)CCC(=O)O[C@H]1CC[C@@]2(C)C(=CC[C@H]3[C@@H]4CC[C@H]([C@H](C)CCCC(C)C)[C@@]4(C)CC[C@@H]32)C1)C(N)=O)C(C)C` [Compound 22] (Ac-DEFDKKKIEEVNKKIEESLKKIEESDKKLEEVEAAAKK(Succinyl(4-O-cholesteryl))-NH2), in series [2] (setting [4]), the CC50 at 1 day was found to be 3.7 µM.
On the same count and under the same terms, under `CC[C@H](C)[C@H](NC(=O)[C@H](CCCCN)NC(=O)[C@H](CCCCN)NC(=O)[C@H](CC(C)C)NC(=O)[C@H](CO)NC(=O)[C@H](CCC(=O)O)NC(=O)[C@H](CCC(=O)O)NC(=O)[C@@H](NC(=O)[C@H](CCCCN)NC(=O)[C@H](CCCCN)NC(=O)[C@H](CC(N)=O)NC(=O)[C@@H](NC(=O)[C@H](CCC(=O)O)NC(=O)[C@H](CCC(=O)O)NC(=O)[C@@H](NC(=O)[C@H](CCCCN)NC(=O)[C@H](CCCCN)NC(=O)[C@H](CCCCN)NC(=O)[C@H](CC(=O)O)NC(=O)[C@H](Cc1ccccc1)NC(=O)[C@H](CCC(=O)O)NC(=O)C(CC(=O)O)NC(C)=O)[C@@H](C)CC)C(C)C)[C@@H](C)CC)C(=O)N[C@@H](CCC(=O)O)C(=O)N[C@@H](CCC(=O)O)C(=O)N[C@@H](CO)C(=O)N[C@@H](CC(=O)O)C(=O)N[C@@H](CCCCN)C(=O)N[C@@H](CCCCN)C(=O)N[C@@H](CC(C)C)C(=O)N[C@@H](CCC(=O)O)C(=O)N[C@@H](CCC(=O)O)C(=O)N[C@H](C(=O)NCC(=O)N[C@@H](CO)C(=O)NCC(=O)N[C@@H](CO)C(=O)NCC(=O)N[C@@H](CCCCNC(=O)CCC(=O)O[C@H]1CC[C@@]2(C)C(=CC[C@H]3[C@@H]4CC[C@H]([C@H](C)CCCC(C)C)[C@@]4(C)CC[C@@H]32)C1)C(N)=O)C(C)C` (stereo partly shown) [Compound 18] (Ac-[ξD]EFDKKKIEEVNKKIEESLKKIEESDKKLEEVGSGSGK(Succinyl(4-O-cholesteryl))-NH2) stands 6.4 µM.
